Experimental data: PubChem BioAssay AID2060601 (Molecular Pharmacology Branch, DTP, NCI, 2025)
“And” between values parts separate entries of the source, which are not always exact repeats. Identical values can stand only once.

Tested on: 874868-142-R-J2-PDC complex spheroids, growth % test/control
Test: Anticancer human tumor 874868-142-R-J2-PDC patient-derived head and neck squamous carcinoma cell line growth inhibition [CLK]
Details: for viability, T/C: stronger effect = lower value
Text: A high-throughput screen of multi-cell type tumor spheroids was designed to identify active combinations of […] and targeted small molecules. Complex spheroids include a stromal component modeled by human endothelial cells (HUVEC) and fibroblasts modeled by human mesenchymal stem cells (MSCs). The concentration ranges selected for each drug and investigational agent were based upon clinically achievable concentrations if the clinical Cmax of the agent was known.
Compounds. The drugs and investigational agents: cirtuvivint (SM08502; NSC835563), CC-671 (NSC850746), vemurafenib (NSC761431), tapotoclax (NSC804041), sotorasib (NSC818433), adagrasib (NSC831453), MRTX-1133 (NSC836407), BAY2416964 (NSC825713), copanlisib (NSC816437), inavolisib (NSC800729), abemaciclib (NSC768073), osimertinib (NSC779217), entinostat (NSC756642), eltanexor (KPT-8602, NSC794443), venetoclax (NSC766270), ceralasertib (NSC777638), bortezomib (NSC756655), olaparib (NSC753686), talazoparib (NSC767125), alisertib (NSC759677), peposertib (NSC802822), gemcitabine (NSC613327), 5-fluorouracil (NSC19893), SN-38 (NSC673596), oxaliplatin (NSC266046), paclitaxel (NSC125973), and doxorubicin (NSC123127), were obtained from the National Cancer Institute (NCI) Developmental Therapeutics Program Chemical Repository. The FDA-approved anticancer drug set is available from the Developmental Therapeutics Program at https://dtp.cancer.gov/organization/dscb/obtaining/available plates.htm. […] The stock solutions were prepared in dimethyl sulfoxide (DMSO, Sigma-Aldrich, St. Louis, MO, cat. D2650), except for the platinum complexes which were prepared in saline (Quality Biological, Gaithersburg, MD, cat. 114-055-101), at 800-fold the tested concentration and stored at -70 degrees C prior to their use. All drugs and investigational agents were tested over a range starting from a high concentration at or near the clinical Cmax and decreasing in half-log increments. If the clinical Cmax for an agent had not been determined, the highest concentration tested was 10 microM.
Cell Culture. All cells were maintained in an incubator at 37 degrees C and 5% CO2 with 95% humidity. The PDC lines were cultured according to standard operating procedures established by the NCI PDMR. Briefly, all PDCs were thawed and cultured in Matrigel-coated flasks prepared with a working solution of 1X Ham's F-12 nutrient mix, without supplementation (Invitrogen, Waltham, MA, cat. 11765054), 100 U/mL penicillin-streptomycin (Invitrogen, cat. 15140122), and 2.5% Matrigel (Corning Inc., Corning, NY, cat. 354248) for the first three passages. The 947758-054-R-J2-PDC line was cultured in 6B/Colon 1A media, which includes advanced DMEM/F-12 (Thermo Fisher Scientific, cat. 12634028), 10 mM HEPES (Thermo Fisher Scientific, cat. 15630080), 1X GlutaMAX supplement (Thermo Fisher Scientific, cat. 35050061), 0.1 mg/mL primocin (InvivoGen, cat. ant-pm-2), 10% defined fetal bovine serum, heat inactivated (HyClone Laboratories Inc., cat. SH30070.03HI), 1.25 mM N-Acetyl-L-cysteine (Sigma-Aldrich, cat. A9165), 10 mM nicotinamide (Sigma-Aldrich, cat. N0636), 1X B-27 supplement (Thermo Fisher Scientific, cat. 17504044), 1X N-2 supplement (Thermo Fisher Scientific, cat. 17502048), and 10 microM Y-27632 dihydrochloride (Tocris Bioscience, cat. 1254). The 876862-298-R-J1-PDC was cultured in 6E media, which includes all 6B/Colon 1A media components plus 50% L-WRN conditioned media (ATCC, cat. CRL-3276), 50 ng/mL recombinant human EGF recombinant protein (hEGF; Thermo Fisher Scientific, cat. PHG0311), 10 ng/mL recombinant human fibroblast growth factor 10 (hGFG-10; PeproTech, cat. 100-26), 1 ng/mL recombinant human fibroblast growth factor 2 (hFGF-2; PeproTech, cat. 100-18B), and 1 µM prostaglandin E2 (PGE2; Tocris, cat. 2296). The 227483-062-R1-J1-PDC line was cultured in Panc media, containing all 6E components except hFGF-2, with the addition of 500 nM SB-431542 (Selleckchem, cat. S1067) and 10 nM gastrin (Tocris, cat. 3006). […]
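Also: spheroids exposed to the compounds for 7 days.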

Row | SMILES | viability, T/C (compound 0.0316 µM) | viability, T/C (compound 0.1 µM) | viability, T/C (compound 0.316 µM) | viability, T/C (compound 1 µM) | viability, T/C (compound 3.16 µM) | viability, T/C (compound 10 µM) | IC50 (curve of compound) | viability, T/C (compound 0.000949 µM) | viability, T/C (compound 0.003 µM) | viability, T/C (compound 0.00949 µM) | viability, T/C (compound 0.03 µM) | viability, T/C (compound 0.0949 µM) | viability, T/C (compound 0.3 µM) | viability, T/C (compound 0.00316 µM) | viability, T/C (compound 0.01 µM) | IC50 (compound alone, run of 09/18/2023) | viability, T/C (compound 0.000316 µM) | viability, T/C (compound 0.001 µM) | viability, T/C (compound 0.949 µM) | viability, T/C (compound 3 µM)
1 | C#Cc1c(F)ccc2cc(O)cc(-c3ncc4c(N5CC6CCC(C5)N6)nc(OCC56CCCN5CC(F)C6)nc4c3F)c12 (stereo unspecified) | 87.8% and 104% | 90.5% and 95.1% | 85.1% and 93.7% | 82.3% and 61% | 61.4% and 59% | 49.3% and 46% | 9280 nM and > 10000 nM |  |  |  |  |  |  |  |  |  |  |  |  | 
2 | C=C(F)C(=O)N1CCN(c2nc(OCC3CCCN3C)nc3c2CCN(c2cccc4cccc(Cl)c24)C3)CC1CC#N (stereo unspecified) | 81.4% and 94.5% | 95.2% and 103% | 76.2% and 82.3% | 68.4% and 87.2% | 53.2% and 64.6% | 1.63% and 4.44% | 3200 nM and 4140 nM |  |  |  |  |  |  |  |  |  |  |  |  | 
3 | C=CC(=O)N1CCN(c2nc(=O)n(-c3c(C)ccnc3C(C)C)c3nc(-c4c(O)cccc4F)c(F)cc23)C(C)C1 (stereo unspecified) | 109% and 92.4% | 84.9% and 96% | 109% and 104% | 119% and 104% | 133% and 131% | 114% and 88.2% | > 10000 nM |  |  |  |  |  |  |  |  |  |  |  |  | 
4 | C=CC(=O)Nc1cc(Nc2nccc(-c3cn(C)c4ccccc34)n2)c(OC)cc1N(C)CCN(C)C |  |  |  |  |  |  | 83.5 nM and 85.2 nM | 103% and 99.9% | 99.5% and 112% | 81.5% and 83.4% | 83.7% and 76.9% | 42.4% and 47.1% | 24.2% and 20.6% |  |  |  |  |  |  | 
5 | CC(C)CC(NC(=O)C(Cc1ccccc1)NC(=O)c1cnccn1)B(O)O (stereo unspecified) |  |  |  |  |  |  | 6.41 nM and 5.45 nM | 102% and 92.4% | 112% and 103% | 20.4% and 5.73% | 3.18% and 1.36% | 0.29% and 1.25% | 0.24% and 4.02% |  |  |  |  |  |  | 
6 | CCCS(=O)(=O)Nc1ccc(F)c(C(=O)c2c[nH]c3ncc(-c4ccc(Cl)cc4)cc23)c1F | 115% and 95.8% | 113% and 129% | 116% and 105% | 111% and 136% | 120% and 141% | 85.7% and 73.7% | > 10000 nM |  |  |  |  |  |  |  |  |  |  |  |  | 
7 | CCN1CCN(Cc2ccc(Nc3ncc(F)c(-c4cc(F)c5nc(C)n(C(C)C)c5c4)n3)nc2)CC1 | 89.7% and 115% | 76.6% and 104% | 97.1% and 112% | 156% and 101% |  |  | > 1000 nM |  |  |  |  |  |  | 107% and 111% | 83.9% and 104% |  |  |  |  | 
8 | CCc1c2c(nc3ccc(O)cc13)-c1cc3c(c(=O)n1C2)COC(=O)[C@]3(O)CC | 32.2% and 42.1% | 32.6% and 36% | 11.1% and 16.2% | 3.13% and 2.22% |  |  | < 3.16 nM |  |  |  |  |  |  | 37.6% and 46.9% | 41% and 49.8% |  |  |  |  | 
9 | CN1CCN(c2cc(C(=O)Nc3cc4cc(-c5cnn(C)c5)ccc4cn3)ccn2)CC1 | 92.8% [middle of 12 runs] | 75.6% [middle of 12 runs] | 19.5% [middle of 12 runs] | 2.43% [middle of 12 runs] | 0.92% [middle of 10 runs] | 0.22% [middle of 9 runs] |  |  |  |  |  |  |  |  |  | 168 nM [middle of 10 runs] |  |  |  | 
10 | COC1C=CCC(C)C(C)S(=O)(=O)NC(=O)c2ccc3c(c2)N(CC2CCC21)CC1(CCCc2cc(Cl)ccc21)CO3 (stereo unspecified) | 103% and 104% | 72.9% and 83.5% | 65.5% and 53.1% | 50.5% and 46.5% | 25.1% and 30.6% | 12.7% and 13.8% | 756 nM and 631 nM |  |  |  |  |  |  |  |  |  |  |  |  | 
11 | COc1c(OCCCN2CCOCC2)ccc2c3n(c(=NC(=O)c4cnc(N)nc4)nc12)CCN3 | 22.6% | 10.7% | 5.08% | 3.71% |  |  | 8.88 nM |  |  |  |  |  |  | 67% | 48.4% |  |  |  |  | 
12 | Cn1ncnc1[C@H]1c2n[nH]c(=O)c3cc(F)cc(c23)N[C@@H]1c1ccc(F)cc1 | 73.8% and 87% | 69.2% and 77.6% |  |  |  |  | > 100 nM |  |  |  |  |  |  | 93.1% and 98.7% | 92.4% and 87.5% |  | 115% and 86.3% | 96.7% and 94.6% |  | 
13 | NC(=O)C(=Cn1cnc(-c2cc(C(F)(F)F)cc(C(F)(F)F)c2)n1)c1cncnc1 |  |  |  |  |  |  | 73 nM and 31.1 nM |  |  | 90.5% and 86% | 72.8% and 48.9% | 43.8% and 30.9% | 18.4% and 12% |  |  |  |  |  | 4.77% and 4.05% | 8.1% and 6.28%
